We go through 19 compounds from ChEMBL document CHEMBL1131878, “Synthesis and biological evaluation of 3-heteroaryloxy-4-phenyl-2(5H)-furanones as selective COX-2 inhibitors” (Bioorg Med Chem Lett, 1999).

For data set [1], the target named is Prostaglandin G/H synthase 1 (Homo sapiens, UniProt P23219). In kind it is microsomes, U-937, Microsome.
Description: Inhibition of COX-1 in U-937 (human lymphoma) cell microsomes.
For data set [2], the system named is Rattus norvegicus. As to the kind of experiment: Potency in rat paw edema assay. It is filed as functional.
Data set [3] is described as follows: Slow clearance (CL) was determined. It is filed as ADME, organism-based. As to conditions: in vivo.
The nature of data set [4]: Maximum concentration for the bioavailability at a dose of 20 mg/kg administered orally. As to conditions: in vivo, po. More on the design: dose 20 mg/kg, route oral. In kind it is ADME, organism-based.
Data set [5] is filed under the species Rattus norvegicus. As to the kind of experiment: Potency by rat hyperalgesia assay. It is filed as functional.
The species entered for data set [6] is Rattus norvegicus. Description: Potency by rat adjuvant arthritis assay. It is filed as functional.
For data set [7], the species on record is Rattus norvegicus. Description: Potency by rat pyrexia assay. It is filed as functional.

SMILES strings stand for the structures.

Chain of Prostaglandin G/H synthase 1 (P23219 whole entry): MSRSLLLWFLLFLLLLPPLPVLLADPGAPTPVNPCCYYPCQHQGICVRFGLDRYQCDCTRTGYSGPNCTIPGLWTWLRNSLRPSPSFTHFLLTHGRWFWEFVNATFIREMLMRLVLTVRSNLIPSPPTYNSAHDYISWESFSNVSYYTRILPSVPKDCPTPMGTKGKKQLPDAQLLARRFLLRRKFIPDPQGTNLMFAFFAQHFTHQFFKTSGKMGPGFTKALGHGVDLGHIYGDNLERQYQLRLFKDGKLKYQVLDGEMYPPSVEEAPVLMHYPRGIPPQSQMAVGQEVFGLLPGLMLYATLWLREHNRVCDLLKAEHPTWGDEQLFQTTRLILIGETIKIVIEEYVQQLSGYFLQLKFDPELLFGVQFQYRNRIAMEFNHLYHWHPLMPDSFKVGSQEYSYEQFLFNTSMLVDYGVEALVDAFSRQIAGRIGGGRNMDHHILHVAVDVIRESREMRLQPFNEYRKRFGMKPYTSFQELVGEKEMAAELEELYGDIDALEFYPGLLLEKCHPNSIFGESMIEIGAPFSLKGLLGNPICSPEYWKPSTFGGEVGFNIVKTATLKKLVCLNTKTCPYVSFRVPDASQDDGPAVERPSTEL

As usually defined, the IC50 is the concentration that inhibits the measured activity by half. As for `CC1(C)OC(=O)C(Oc2ccncc2)=C1c1ccc(S(C)(=O)=O)cc1`, the half-inhibitory concentration (IC50) in data set [1] is greater than 100 µM.
As for `CC1(C)OC(=O)C(Oc2ccc(F)cn2)=C1c1ccc(S(C)(=O)=O)cc1`, in data set [1], the IC50 was 4.6 µM.
For `CC1(C)OC(=O)C(Oc2ccc3sccc3c2)=C1c1ccc(S(C)(=O)=O)cc1`, the IC50 in data set [1] was less than 0.3 µM.
In data set [1], `CC1(C)OC(=O)C(Oc2cccc(Cl)n2)=C1c1ccc(S(C)(=O)=O)cc1` displayed an IC50 greater than 10 µM.
In data set [1], `CC1(C)OC(=O)C(Oc2ccc(C3CC3)cn2)=C1c1ccc(S(C)(=O)=O)cc1` returned a 50% inhibitory concentration (IC50) of 3 µM.
`CC1(C)OC(=O)C(Oc2cccnc2)=C1c1ccc(S(C)(=O)=O)cc1` yielded an IC50 in data set [1] greater than 30 µM.
By ED50 is commonly meant the dose that gives a 50% effect, or the effect in half of the subjects. Compound `CC1(C)OC(=O)C(Oc2ccccn2)=C1c1ccc(S(C)(=O)=O)cc1` returned an IC50 in data set [1] greater than 10 µM. In the data set on Rattus norvegicus [2], this compound yielded an ED50 greater than 10 mg/kg.
Turning to `CC1(C)OC(=O)C(Oc2ncc(Cl)cc2Cl)=C1c1ccc(S(C)(=O)=O)cc1`, the midpoint of inhibition in data set [1], the IC50, lay at 0.3 µM.
On the same count and under the same terms, for `CC1(C)OC(=O)C(Oc2ncnc3ccccc23)=C1c1ccc(S(C)(=O)=O)cc1` the value was greater than 10 µM; for `Cc1ccc(OC2=C(c3ccc(S(C)(=O)=O)cc3)C(C)(C)OC2=O)nc1`, 3 µM; for `CC1(C)OC(=O)C(Oc2cnccn2)=C1c1ccc(S(C)(=O)=O)cc1`, greater than 10 µM.
By Cmax is commonly meant the peak of the concentration-time curve. Regarding `CC1(C)OC(=O)C(Oc2ccc(Cl)cn2)=C1c1ccc(S(C)(=O)=O)cc1`, the ED50 with Rattus norvegicus [2] was 0.75 mg/kg. Further, the CL in data set [3] was 4.8. In data set [4], this compound gave a Cmax of 16 µM.
Compound `CC1(C)OC(=O)C(Oc2ccc3ccccc3n2)=C1c1ccc(S(C)(=O)=O)cc1` displayed an IC50 in data set [1] of 3 µM.
In data set [1], `CC1(C)OC(=O)C(Oc2ccc3[nH]ccc3c2)=C1c1ccc(S(C)(=O)=O)cc1` showed an IC50 of 1 µM.
Turning to `CC1(C)OC(=O)C(Oc2ccc(Br)cn2)=C1c1ccc(S(C)(=O)=O)cc1`, the ED50 was found to be 0.6 mg/kg in the data set filed under Rattus norvegicus [5], 0.2 mg/kg in the data set listed under Rattus norvegicus [6], 0.86 mg/kg in the data set on Rattus norvegicus [2] and 0.3 mg/kg in the data set filed under Rattus norvegicus [7]. This compound came in with a half-inhibitory concentration (IC50) in data set [1] of 5.6 µM.
`CC1(C)OC(=O)C(Oc2ncccc2Cl)=C1c1ccc(S(C)(=O)=O)cc1` had an IC50 in data set [1] of 1 µM.
In data set [1], `CC1(C)OC(=O)C(Oc2cccc3cnccc23)=C1c1ccc(S(C)(=O)=O)cc1` displayed a 50% inhibitory concentration (IC50) of 3 µM.
Same read-out and setting: for `CC1(C)OC(=O)C(Oc2ncccn2)=C1c1ccc(S(C)(=O)=O)cc1` the value was greater than 10 µM.
With `CS(=O)(=O)c1ccc(C2=C(c3ccccc3)C(=O)OC2)cc1` [ROFECOXIB], the 50% effect level with Rattus norvegicus [2] (ED50) was put at a dose of 1.5 mg/kg.
